SMILES strings stand for the structures.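 Tested at 5 concentrations; 48 h exposure; 96-well plates; endpoints linearly interpolated, else capped at highest concentration. GI50 is the concentration that inhibits growth by half.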 The source made the active and inactive calls. Rule as the data show it: active = GI50 up to about 1.1 µM and inactive = higher. A value given as a limit tells only on which side of the number the result lay.

What all share (test): NCI-60 cell line screen, 48 h
Assay [1] relates to KM12.
For assay [2], the system named is SK-OV-3.
In assay [3] the test system is SF-295.
The test system of assay [4] is MCF7.
Assay [5] deals with COLO 205.
In assay [6] the test system is CAKI-1.
Assay [7] deals with OVCAR-4.
Assay [8] relates to LOX IMVI.
Assay [9] concerns RPMI-8226.
Assay [10] relates to IGROV-1.
The test system of assay [11] is SN12C.
In assay [12] the test system is HL-60.
Assay [13] concerns HOP-62.
Assay [14] deals with UO-31.
In assay [15] the test system is OVCAR-5.
Assay [16] concerns HT-29.
In assay [17] the test system is UACC-62.
In assay [18] the test system is OVCAR-8.
In assay [19] the test system is SR.
In assay [20] the test system is M14.

In the case of `CC(C)c1oc(=O)cc2c1C(O)C1OC(=O)C3(C)C(O)C4OC4C2(C)C13` (stereo not given) [NAGILACTONE], the GI50 in assay [1] was 1.72 µM (inactive); in assay [2], 5.2 µM (inactive); in assay [3], 1.65 µM (inactive); in assay [4], 0.728 µM (active); in assay [5], 1.13 µM (inactive); in [6], 2.08 µM (inactive). For the same molecule, the GI50 in assay [7] was 2.12 µM (inactive); in assay [8], 0.653 µM (active); in [9], 1.1 µM (active); in assay [10], 2.75 µM (inactive); in [11], 1.31 µM (inactive); in assay [12], 0.478 µM (active). Besides, the GI50 is 2.15 µM (inactive) in [13]; 4.52 µM (inactive) in [14]; 9.48 µM (inactive) in [15]; 1.69 µM (inactive) in assay [16]; 1.38 µM (inactive) in assay [17]; 1.75 µM (inactive) in assay [18].

As to `Oc1cn(-c2ccc(Cl)cc2)nc1-c1nnc(-c2ccccc2)o1`, the GI50 was 0.0847 µM (active) in [1]; 12.9 µM (inactive) in [2]; 0.102 µM (active) in assay [3]; 0.263 µM (active) in assay [4]; 1.87 µM (inactive) in [5]; 0.359 µM (active) in assay [6]. Also, the GI50 was 19.5 µM (inactive) in [7]; 0.728 µM (active) in [9]; 0.989 µM (active) in assay [10]; 1.43 µM (inactive) in [11]; 0.181 µM (active) in assay [12]; 0.132 µM (active) in assay [13]. Further, the GI50 in [14] was 0.726 µM (active); in assay [15], 1.58 µM (inactive); in assay [16], 2.83 µM (inactive); in [17] it was 2.09 µM (inactive); in assay [18], 0.277 µM (active).

Consider `COc1ccc(C(=O)C(C(=O)C(=O)NC2C3CC4CC(C3)CC2C4)c2ccc(OC)cc2)cc1` (stereo not given), for which the GI50 in assay [1], in assay [19], in assay [2], in assay [3], in [5] and in assay [6] was > 100 µM (inactive) throughout. For the same molecule, the GI50 in assay [7], in assay [8], in assay [9], in [10], in assay [11] and in assay [12] was > 100 µM (inactive) in each case. For the same molecule, the GI50 in assay [20], in assay [13], in assay [14], in assay [15], in [16] and in assay [17] was > 100 µM (inactive) throughout. For the same molecule, the GI50 in [18] is > 100 µM (inactive).

For `COC(=O)C1Cc2c([nH]c3ccccc23)C=N1` (stereo not given), the GI50 in [1] was 94.2 µM (inactive); in [19] it was > 100 µM (inactive); in assay [2], > 100 µM (inactive); in [3], > 100 µM (inactive); in assay [5], > 100 µM (inactive); in [6], > 100 µM (inactive). The GI50 in assay [7] is > 100 µM (inactive); in [8], 51.8 µM (inactive); in assay [9] it was > 100 µM (inactive); in [10] it was > 100 µM (inactive); in assay [11], > 100 µM (inactive); in assay [12], > 100 µM (inactive). Also, the GI50 in [20], in assay [13], in assay [14], in assay [15], in [16] and in assay [17] was > 100 µM (inactive) in each case. Further, the GI50 in assay [18] was > 100 µM (inactive).

With `CC1(C)N=C(N)N=C(N)N1c1ccc(CCc2ccccc2)cc1`, the GI50 in assay [1] was 1.42 µM (inactive); in [2] it was 48.4 µM (inactive); in assay [3], 2.17 µM (inactive); in assay [4], 1.32 µM (inactive); in assay [5] it was 1.36 µM (inactive); in assay [6], 21.6 µM (inactive). Further, the GI50 in assay [7] is 3.53 µM (inactive); in [8] it was 0.675 µM (active); in [9], 17.4 µM (inactive); in [10], 0.348 µM (active); in [11], 0.759 µM (active); in [12] it was 13.3 µM (inactive). The GI50 in [14] is > 34.1 µM (inactive); in assay [15], 1.92 µM (inactive); in [16], 0.565 µM (active); in [17], 1.02 µM (active); in [18] it was 2.53 µM (inactive).

Take `CC(C)CCCC(C)[C@H]1CCC(C2C[C@@H](O)[C@@H]3CC(O)[C@@H](O)C[C@]3(CO)C2=O)[C@]1(C)CCO` (stereo not given in full): the GI50 in assay [1] was 14.3 µM (inactive); in assay [2] it was 25.8 µM (inactive); in [3] it was 20.4 µM (inactive); in assay [4] it was 14.2 µM (inactive); in [5] it was 20 µM (inactive); in assay [7], 30.6 µM (inactive). Further, the GI50 in assay [8] is 20.9 µM (inactive); in assay [9] it was 27.1 µM (inactive); in [10], 23.3 µM (inactive); in [11], 30.2 µM (inactive); in assay [12], 16.1 µM (inactive); in [13] it was 23.9 µM (inactive). The GI50 in assay [14] was 23 µM (inactive); in assay [15] it was 23.2 µM (inactive); in assay [16] it was 19.5 µM (inactive); in assay [17], 19.2 µM (inactive); in assay [18] it was > 50.1 µM (inactive).

As to `COc1ccc(C(c2ccc(C(C)C)cc(=O)c2O)c2ccc3cccnc3c2O)cc1` (stereo not given), the GI50 in assay [1] was 1.45 µM (inactive); in assay [19] it was 1 µM (active); in [2], 2.3 µM (inactive); in assay [3], 0.337 µM (active); in assay [5], 1.05 µM (active); in assay [6], 1.79 µM (inactive). For the same molecule, the GI50 is 2.88 µM (inactive) in assay [7]; 0.499 µM (active) in [8]; 1.97 µM (inactive) in assay [9]; 0.425 µM (active) in [10]; 0.415 µM (active) in [11]; 0.863 µM (active) in assay [12]. Further, the GI50 in assay [20] was 0.933 µM (active); in [13], 0.387 µM (active); in assay [14], 0.421 µM (active); in [15], 1.58 µM (inactive); in assay [16], 3.07 µM (inactive); in assay [17], 0.735 µM (active). In [18], the GI50 was 1.08 µM (active).

In the case of `COc1cc(C2C3=C(N=C4SC(C(C)=O)=C(C)N42)c2ccccc2CC3)cc(OC)c1OC` (stereo not given), the GI50 in assay [1] is > 100 µM (inactive); in [2], > 100 µM (inactive); in assay [3] it was 68.7 µM (inactive); in assay [4], 75.5 µM (inactive); in assay [5], 54.3 µM (inactive); in assay [7], > 100 µM (inactive). Moreover, the GI50 is > 100 µM (inactive) in [8]; 13.8 µM (inactive) in assay [9]; 52 µM (inactive) in [10]; > 100 µM (inactive) in assay [11]; 30.8 µM (inactive) in [12]; > 100 µM (inactive) in assay [20]. Further, the GI50 was 97.9 µM (inactive) in assay [13]; > 100 µM (inactive) in [14]; > 100 µM (inactive) in assay [15]; 64.4 µM (inactive) in assay [16]; > 100 µM (inactive) in assay [17]; > 100 µM (inactive) in assay [18].

For the molecule `CC1=C(C(=O)NCc2ccccc2)C(c2ccco2)C(C(=O)NCc2ccccc2)=C(C)N1`, the GI50 in assay [1] was 33.8 µM (inactive); in assay [19] it was > 100 µM (inactive); in assay [2], > 100 µM (inactive); in assay [3], 56.9 µM (inactive); in assay [5], > 100 µM (inactive); in assay [6], 57.5 µM (inactive). The GI50 in [7] was 55.7 µM (inactive); in assay [8], 77.3 µM (inactive); in assay [9], > 100 µM (inactive); in assay [10] it was > 100 µM (inactive); in assay [11], 91.6 µM (inactive); in [12], 17.8 µM (inactive). The GI50 in assay [20] was 57 µM (inactive); in assay [13], 65.3 µM (inactive); in assay [14], > 100 µM (inactive); in [15], > 100 µM (inactive); in assay [16] it was 53.8 µM (inactive); in assay [17], 17.3 µM (inactive). For the same molecule, the GI50 in [18] was 78.5 µM (inactive).

Consider `O=C1Nc2ccccc2C(=O)/C1=C/NC(=S)NCCc1ccccc1`, for which the GI50 in [1] was 55.3 µM (inactive); in assay [2], > 100 µM (inactive); in assay [3], > 100 µM (inactive); in assay [4] it was > 100 µM (inactive); in assay [5], > 100 µM (inactive); in assay [6], > 100 µM (inactive). For the same molecule, the GI50 in assay [7], in assay [8], in assay [10], in assay [11], in assay [12] and in [20] was > 100 µM (inactive) each time. Further, the GI50 in assay [13], in assay [14], in assay [15], in [16], in assay [17] and in assay [18] was > 100 µM (inactive) throughout.

With `C=CC1(C)CCC2=C(CCC3C(C)(C(=O)OC)CCCC23C)C1=O` (stereo not given), the GI50 in [1] is 17.4 µM (inactive); in assay [19] it was 19 µM (inactive); in assay [2], 18.9 µM (inactive); in assay [3], 27 µM (inactive); in assay [5], 19.1 µM (inactive); in [6], 30.3 µM (inactive). In addition, the GI50 is 14.7 µM (inactive) in assay [7]; 18.5 µM (inactive) in assay [8]; 21.7 µM (inactive) in assay [9]; 18.9 µM (inactive) in assay [10]; 19 µM (inactive) in [11]; 28.7 µM (inactive) in assay [12]. Further, the GI50 in assay [20] was 20.8 µM (inactive); in [13], 16.8 µM (inactive); in [14], 20.8 µM (inactive); in assay [15] it was 16 µM (inactive); in assay [16] it was 17 µM (inactive); in assay [17] it was 18.3 µM (inactive). Also, the GI50 in assay [18] was 29.8 µM (inactive).
